Test results reported in patent US11000627B2, “Treatment of implants with phosphonic acid compounds” (Nano Bridging Molecules SA, priority 2016, dated 2021).
Marks after values point to notes of the source that are not given here.

Key:
[1] = XPS phosphorus over metal ratio (surface coverage) on Titanium grade 23 dental implants; format: physicochemical; conditions: sonicated 65° C. 10 min, Metal = Ti2p + Al2s + V2p
Procedure: A Titanium grade 23 dental implant (bulk composition atomic concentration Titanium 90%, Aluminum 6%, Vanadium 4%; length 11.0 mm, diameter 3.75 mm) was provided with a roughened surface, produced by sand blasting and acid etching according to industry standards. The dental implant was immersed in 40 ml of a 2% (v/v) aqueous solution of deconex 15 PF-x (which is a phosphate free, potassium hydroxide based standard cleaning agent). The solution was placed in an ultrasonic bath (output frequency 30 kHz) and sonicated at 65° C. for 30 min. The implant was removed from the cleaning agent solution and rinsed with water as follows: 2 times with 40 ml, swirling at room temperature; 4 times with 40 ml, sonicating for 2 min at 65° C.; 1 time with 40 ml, swirling at room temperature. The implant was then placed into 5 ml of a 0.7 mM aqueous solution of 1,1,3,3-propane tetraphosphonic acid. The solution was placed in the ultrasonic bath and sonicated at 65° C. for 10 min. The implant was rinsed with water as follows: 2 times with 10 ml, swirling at room temperature; 1 time with 10 ml, sonicating for 2 min at 65° C.; 1 time with 10 ml, swirling at room temperature. The dental implant was dried in a desiccator over P2O5 and under vacuum (ca 20 mbar) for at least 3 hours.
Ten Titanium grade 23 dental implants (bulk composition atomic concentration Titanium 90%, Aluminum 6%, Vanadium 4%; length 11.0 mm, diameter 3.75 mm) were provided with a roughened surface, produced by sand blasting and acid etching according to industry standards. The dental implants were immersed in 400 ml of a 2% (v/v) aqueous solution of deconex 15 PF-x (which is a phosphate free, potassium hydroxide based standard cleaning agent). The solution was placed in an ultrasonic bath (output frequency 30 kHz) and sonicated at 65° C. for 30 min. The implants were removed from the cleaning agent solution and rinsed with water as follows: 2 times with 400 ml, swirling at room temperature; 4 times with 400 ml, sonicating for 2 min at 65° C.; 1 time with 400 ml, swirling at room temperature. The implants were then placed one after the other into 5 ml of a 0.7 mM aqueous solution of 1,1,3,3-propane tetraphosphonic acid. The solution was placed in the ultrasonic bath and sonicated at 65° C. for 10 min. After the treatment with the phosphonic acid, each implant was rinsed with water as follows: 1 time with 10 ml, swirling at room temperature; 1 time with 10 ml, sonicating for 2 min at 65° C.; 1 time with 10 ml, swirling at room temperature. The dental implants were dried in a desiccator over P2O5 and under vacuum (ca 30 mbar) for at least 3 hours.
A Titanium grade 23 dental implant (bulk composition atomic concentration Titanium 90%, Aluminum 6%, Vanadium 4%; length 13.0 mm, diameter 3.75 mm) was provided with a roughened surface, produced by sand blasting and acid etching according to industry standards. The implant was immersed in 13 ml of a 0.7 mM aqueous solution of 1,1,3,3-propane tetraphosphonic acid. The solution was placed in an ultrasonic bath and sonicated at room temperature for 10 min. The implant was rinsed with water as follows: 1 time with 10 ml, swirling at room temperature; 2 times with 10 ml, sonicating for 1 min at room temperature. The dental implant was dried in a heating oven (ca 70° C.) for at least 1 hour. […]
Following the surface treatment with one phosphonic acid compound as described in Examples 1 to 7 the samples were analyzed by X-ray photoelectron spectroscopy (XPS). […]

[2] = XPS phosphorus over metal ratio on Titanium grade 4 cylinders; format: physicochemical; conditions: 0.7 mM, Metal = Ti2p
Procedure: XPS analyses were performed on an Axis Ultra spectrometer from Kratos (Kratos, Manchester, U.K.) equipped with a concentric hemispherical analyzer and using a monochromatized aluminum anode X-ray source (Al Kα1,2 1486.6 eV, full width at half maximum, fwhm=0.85 eV, 15 kV, 150 W). The samples were investigated under ultrahigh vacuum conditions: 10^−8-10^−7 Pa. Spectra were taken at a 90° takeoff angle with respect to the surface. A sample area of 300×700 μm^2 or 700×700 μm^2 was analyzed with a pass energy of 80.0 eV for survey scans. The spectrometer was calibrated by using Cu 2p3/2 (932.7 eV) and Au 4f7/2 (84.0 eV) signals. Surface sensitivity factors used to determine the atomic concentrations were those of the instrument. Spectra were peak fitted after background subtraction by assuming a Gaussian/Lorentzian (90-70/10-30) peak shape. All peaks between 0 eV to 1200 eV were inspected.
Two Titanium grade 4 cylinders (bulk composition atomic concentration Titanium 100%; length 6.0 mm, diameter 2.4 mm) were provided with a roughened surface, produced by sand blasting and acid etching according to industry standards. The cylinders were immersed in 6 ml of a 2% (v/v) aqueous solution of deconex 15 PF-x (which is a phosphate free, potassium hydroxide based standard cleaning agent). The solution was placed in an ultrasonic bath (output frequency 30 kHz) and sonicated at 65° C. for 15 min. The cylinders were removed from the cleaning agent solution and rinsed with water as follows: 2 times with 10 ml, swirling at room temperature; 4 times with 10 ml, sonicating for 2 min at 65° C.; 1 time with 10 ml, swirling at room temperature. The cylinders were then placed into 6 ml of a 0.7 mM aqueous solution of 1,1,3,3-propane tetraphosphonic acid. The solution was placed in the ultrasonic bath and sonicated at 65° C. for 15 min. The cylinders were rinsed with water as follows: 2 times with 10 ml, swirling at room temperature; 1 time with 10 ml, sonicating for 2 min at 65° C.; 1 time with 10 ml, swirling at room temperature. The cylinders were dried in a desiccator over P2O5 and under vacuum (ca 20 mbar) for at least 3 hours.
Two Titanium grade 4 cylinders (bulk composition atomic concentration Titanium 100%; length 6.0 mm, diameter 2.4 mm) were provided with a roughened surface, produced by sand blasting and acid etching according to industry standards. The cylinders were immersed in 6 ml of a 2% (v/v) aqueous solution of deconex 15 PF-x (which is a phosphate free, potassium hydroxide based standard cleaning agent). The solution was placed in an ultrasonic bath (output frequency 30 kHz) and sonicated at room temperature for 15 min. The cylinders were removed from the cleaning agent solution and rinsed with water as follows: 2 times with 10 ml, swirling at room temperature; 4 times with 10 ml, sonicating for 2 min at room temperature; 1 time with 10 ml, swirling at room temperature. The cylinders were then placed into 6 ml of a 0.7 mM aqueous solution of 1,1,3,3-propane tetraphosphonic acid. The solution was swirled thoroughly and left to stand at room temperature for 15 min. The cylinders were rinsed with water as follows: 2 times with 10 ml, swirling at room temperature; 1 time with 10 ml, sonicating for 2 min at room temperature; 1 time with 10 ml, swirling at room temperature. The cylinders were dried in a desiccator over P2O5 and under vacuum (ca 20 mbar) for at least 3 hours.

O=P(O)(O)C(CC(P(=O)(O)O)P(=O)(O)O)P(=O)(O)O [1,1,3,3-propane tetraphosphonic acid]
Phosphorus/Metal ([1]; 0.7 mM): 0.19
Phosphorus/Metal ([1]; 2 mM): 0.18
Phosphorus/Metal ([1]; 3.5 mM): 0.17
Phosphorus/Metal ([1]; 5 mM): 0.18
Phosphorus/Metal ([1]; 7 mM): 0.18
Phosphorus/Metal ([2]; Phosphonic acid 5 min, sonicated 65° C.): 0.24^b
Phosphorus/Metal ([2]; Phosphonic acid 10 min, sonicated 65° C.): 0.28^b
Phosphorus/Metal ([2]; Phosphonic acid 30 min, sonicated 65° C.): 0.30^b
Phosphorus/Metal ([2]; Phosphonic acid 60 min, sonicated 65° C.): 0.28^b
Phosphorus/Metal ([2]; all steps sonicated at 40° C., 15 min): 0.22^b
Phosphorus/Metal ([2]; all steps sonicated at 50° C., 15 min): 0.26^b
Phosphorus/Metal ([2]; all steps sonicated at 60° C., 15 min): 0.25^b
Phosphorus/Metal ([2]; all steps sonicated at 70° C., 15 min): 0.25^b
Phosphorus/Metal ([2]; all steps sonicated at 80° C., 15 min): 0.27^b
Phosphorus/Metal ([2]; all steps sonicated at 90° C., 15 min): 0.27^b
Phosphorus/Metal ([2]; pre-treatment Deconex 15PF-x 5 min, sonicated 65° C. 15 min): 0.36^b
Phosphorus/Metal ([2]; pre-treatment Deconex 15PF-x 15 min, sonicated 65° C. 15 min): 0.32^b
Phosphorus/Metal ([2]; pre-treatment Deconex 15PF-x 30 min, sonicated 65° C. 15 min): 0.32^b
